From ChEMBL document CHEMBL6103537 (J Med Chem, 2025)

Assays:
[1] = molecular target: T1, Protein cereblon/Signal transducer and activator of transcription 6 (Homo sapiens, UniProt P42226+Q96SW2); assay: PROTAC activity at STAT6/CRBN in human MV4-11 cells assessed as reduction in STAT6 level at 5 uM incubated for 12 hrs by Western blot analysis relative to control; type: cell-based
Target sequence in this assay (Q96SW2 whole entry partner, one chain of several): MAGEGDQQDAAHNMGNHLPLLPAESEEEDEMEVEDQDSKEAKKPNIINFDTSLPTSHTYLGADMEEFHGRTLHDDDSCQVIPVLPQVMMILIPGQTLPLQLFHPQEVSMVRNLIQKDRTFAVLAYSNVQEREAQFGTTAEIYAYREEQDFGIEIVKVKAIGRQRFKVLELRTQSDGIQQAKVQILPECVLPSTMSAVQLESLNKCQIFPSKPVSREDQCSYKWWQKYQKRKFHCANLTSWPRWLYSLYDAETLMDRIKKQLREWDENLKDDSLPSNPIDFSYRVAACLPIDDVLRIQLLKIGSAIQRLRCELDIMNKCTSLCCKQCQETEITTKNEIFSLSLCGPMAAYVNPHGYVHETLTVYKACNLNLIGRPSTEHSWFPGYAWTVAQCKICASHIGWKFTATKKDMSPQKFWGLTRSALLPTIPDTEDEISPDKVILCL

[2] = molecular target: T1, Protein cereblon/Signal transducer and activator of transcription 6; assay: PROTAC activity at STAT6/CRBN in human MV4-11 cells assessed as reduction in STAT6 level incubated for 12 hrs by Western blot analysis; type: cell-based
Target sequence in this assay (Q96SW2 whole entry, one chain of several): as the sequence (Q96SW2 whole entry partner, one chain of several) above

[3] = molecular target: T2, Signal transducer and activator of transcription 5A (Homo sapiens, UniProt P42229); assay: Binding affinity to STAT5A (unknown origin) assessed as inhibition constant incubated for 1 hr by fluorescence polarization assay
T2 sequence (P42229 whole entry): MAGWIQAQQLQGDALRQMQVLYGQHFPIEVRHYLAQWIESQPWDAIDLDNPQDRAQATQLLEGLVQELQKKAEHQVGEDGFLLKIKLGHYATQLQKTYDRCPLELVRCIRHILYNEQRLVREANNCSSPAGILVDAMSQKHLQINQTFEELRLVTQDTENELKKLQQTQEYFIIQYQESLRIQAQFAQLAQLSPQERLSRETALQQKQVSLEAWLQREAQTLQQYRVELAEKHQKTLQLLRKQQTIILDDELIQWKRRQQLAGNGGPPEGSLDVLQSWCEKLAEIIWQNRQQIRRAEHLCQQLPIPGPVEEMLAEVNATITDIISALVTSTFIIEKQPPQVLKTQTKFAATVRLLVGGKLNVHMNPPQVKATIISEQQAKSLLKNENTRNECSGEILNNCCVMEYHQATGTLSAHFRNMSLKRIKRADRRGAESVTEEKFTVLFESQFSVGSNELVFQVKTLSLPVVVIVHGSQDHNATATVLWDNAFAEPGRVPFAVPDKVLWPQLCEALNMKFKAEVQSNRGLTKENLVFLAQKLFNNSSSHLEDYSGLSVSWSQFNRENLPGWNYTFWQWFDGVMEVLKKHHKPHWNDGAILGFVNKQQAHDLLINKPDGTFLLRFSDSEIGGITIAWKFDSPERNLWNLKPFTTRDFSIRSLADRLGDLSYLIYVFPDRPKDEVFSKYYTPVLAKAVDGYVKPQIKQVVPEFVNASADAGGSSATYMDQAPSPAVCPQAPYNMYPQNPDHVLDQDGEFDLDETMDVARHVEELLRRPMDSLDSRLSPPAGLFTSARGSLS

[4] = molecular target: T3, Signal transducer and activator of transcription 6 (Homo sapiens, UniProt P42226); assay: Binding affinity to N-terminal his6-tgged STAT6 (unknown origin) (113 to 658 residues) assessed as inhibition constant incubated for 1 hr by fluorescence polarization assay
T3 sequence (P42226 whole entry): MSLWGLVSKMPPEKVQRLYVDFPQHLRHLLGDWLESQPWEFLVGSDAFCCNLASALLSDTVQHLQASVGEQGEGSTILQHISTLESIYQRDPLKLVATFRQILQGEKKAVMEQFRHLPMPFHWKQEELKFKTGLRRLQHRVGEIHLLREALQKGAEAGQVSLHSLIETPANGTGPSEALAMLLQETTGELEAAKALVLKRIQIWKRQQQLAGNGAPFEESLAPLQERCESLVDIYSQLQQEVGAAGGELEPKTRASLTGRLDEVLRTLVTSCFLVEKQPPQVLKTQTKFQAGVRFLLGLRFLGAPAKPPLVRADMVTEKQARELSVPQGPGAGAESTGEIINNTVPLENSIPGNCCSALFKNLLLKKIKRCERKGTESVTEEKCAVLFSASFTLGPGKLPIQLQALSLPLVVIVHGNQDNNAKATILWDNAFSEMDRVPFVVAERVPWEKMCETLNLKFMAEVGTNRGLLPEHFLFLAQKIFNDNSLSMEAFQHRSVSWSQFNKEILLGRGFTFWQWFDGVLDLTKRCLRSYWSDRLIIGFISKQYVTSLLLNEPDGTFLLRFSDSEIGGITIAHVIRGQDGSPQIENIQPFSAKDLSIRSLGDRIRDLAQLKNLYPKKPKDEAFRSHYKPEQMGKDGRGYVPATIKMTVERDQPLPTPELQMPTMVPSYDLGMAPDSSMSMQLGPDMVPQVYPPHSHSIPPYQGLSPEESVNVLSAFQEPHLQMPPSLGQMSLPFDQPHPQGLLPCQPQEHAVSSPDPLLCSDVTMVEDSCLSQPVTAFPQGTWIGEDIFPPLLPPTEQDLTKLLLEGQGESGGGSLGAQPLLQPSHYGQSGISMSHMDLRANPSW

[5] = molecular target: T4, Signal transducer and activator of transcription 5B (Homo sapiens, UniProt P51692); assay: Binding affinity to STAT5B (unknown origin) assessed as inhibition constant incubated for 1 hr by fluorescence polarization assay
T4 sequence (P51692 whole entry): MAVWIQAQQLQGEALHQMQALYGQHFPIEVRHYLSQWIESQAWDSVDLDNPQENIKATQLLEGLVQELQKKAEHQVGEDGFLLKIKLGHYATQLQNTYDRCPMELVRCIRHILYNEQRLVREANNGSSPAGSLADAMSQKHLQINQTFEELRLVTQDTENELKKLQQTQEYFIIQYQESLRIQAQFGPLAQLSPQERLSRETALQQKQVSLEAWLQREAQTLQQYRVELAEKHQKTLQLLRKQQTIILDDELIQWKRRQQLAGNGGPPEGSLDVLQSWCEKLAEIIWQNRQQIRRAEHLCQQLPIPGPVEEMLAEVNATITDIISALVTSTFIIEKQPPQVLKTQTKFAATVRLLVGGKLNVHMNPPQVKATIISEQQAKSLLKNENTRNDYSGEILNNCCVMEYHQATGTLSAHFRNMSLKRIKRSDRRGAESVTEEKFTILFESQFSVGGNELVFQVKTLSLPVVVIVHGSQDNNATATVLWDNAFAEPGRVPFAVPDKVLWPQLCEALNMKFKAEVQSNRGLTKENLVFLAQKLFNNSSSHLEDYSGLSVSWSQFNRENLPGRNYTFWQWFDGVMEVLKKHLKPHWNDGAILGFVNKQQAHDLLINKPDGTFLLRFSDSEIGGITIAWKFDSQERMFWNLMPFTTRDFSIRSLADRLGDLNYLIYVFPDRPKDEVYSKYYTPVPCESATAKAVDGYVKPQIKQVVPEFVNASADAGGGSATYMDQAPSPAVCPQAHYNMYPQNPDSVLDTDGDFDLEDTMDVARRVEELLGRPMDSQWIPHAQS

Row | SMILES | Emax [1] | DC50 [2] | Ki [3] | Ki [4] | Ki [5]
1 | CC(C)(C)[C@H](NC(=O)c1cc2cc(C(F)(F)P(=O)(O)O)ccc2s1)C(=O)N1C[C@@H](OCCCCC#Cc2cccc3c2CN(C2CCC(=O)NC2=O)C3=O)C[C@H]1C(=O)N1CCO[C@H](c2ccccc2)C1 (some centres undefined) | > 95% | 50 nM | – | – | –
2 | CC(C)(C)[C@H](NC(=O)c1cc2cc(C(F)(F)P(=O)(O)O)ccc2s1)C(=O)N1CCC[C@H]1C(=O)N1CCOC(c2ccc(F)cc2)C1 (some centres undefined) | – | – | > 5000 nM | 220 nM | 4400 nM
3 | CC(C)(C)[C@H](NC(=O)c1cc2cc(C(F)(F)P(=O)(O)O)ccc2s1)C(=O)N1C[C@@H](OCCCCCCNc2cccc3c2CN(C2CCC(=O)NC2=O)C3=O)C[C@H]1C(=O)N1CCO[C@H](c2ccccc2)C1 (some centres undefined) | > 95% | 60 nM | – | – | –
4 | CC(C)(C)[C@H](NC(=O)c1cc2cc(C(F)(F)P(=O)(O)O)ccc2s1)C(=O)N1CCC[C@H]1C(=O)N1CCOC(c2ccc(F)cc2F)C1 (some centres undefined) | – | – | > 5000 nM | 420 nM | > 5000 nM
5 | CC(C)(C)[C@H](NC(=O)c1cc2cc(C(F)(F)P(=O)(O)O)ccc2s1)C(=O)N1C[C@@H](NC(=O)CCCC#Cc2cccc3c2CN(C2CCC(=O)NC2=O)C3=O)C[C@H]1C(=O)N1CCO[C@H](c2ccccc2)C1 (some centres undefined) | > 95% | 260 nM | – | – | –
6 | CC(C)(C)[C@H](NC(=O)c1cc2cc(C(F)(F)P(=O)(O)O)ccc2s1)C(=O)N1C[C@@H](OCCCCCCC#Cc2cccc3c2CN(C2CCC(=O)NC2=O)C3=O)C[C@H]1C(=O)N1CCO[C@H](c2ccccc2)C1 (some centres undefined) | > 95% | 20 nM | – | – | –
7 | CC(C)(C)[C@H](NC(=O)c1cc2cc(C(F)(F)P(=O)(O)O)ccc2s1)C(=O)N1CCC[C@H]1C(=O)N1CCOC(C2CCCCC2)C1 (some centres undefined) | – | – | 1800 nM | 500 nM | 200 nM
8 | CC(C)(C)[C@H](NC(=O)c1cc2cc(C(F)(F)P(=O)(O)O)ccc2s1)C(=O)N1C[C@@H](NC(=O)CCCCCC#Cc2ccc3c(c2)CN(C2CCC(=O)NC2=O)C3=O)C[C@H]1C(=O)N1CCO[C@H](c2ccccc2)C1 (some centres undefined) | > 90% | 200 nM | – | – | –
9 | CC(C)(C)[C@H](NC(=O)c1cc2cc(C(F)(F)P(=O)(O)O)ccc2s1)C(=O)N1C[C@@H](NC(=O)CCCCCC#Cc2cccc3c2CN(C2CCC(=O)NC2=O)C3=O)C[C@H]1C(=O)N1CCO[C@H](c2ccccc2)C1 (some centres undefined) | > 95% | 60 nM | – | – | –
10 | CC(C)(C)[C@H](NC(=O)c1cc2cc(C(F)(F)P(=O)(O)O)ccc2s1)C(=O)N1CCC[C@H]1C(=O)N1CCOC(Cc2ccccc2)C1 (some centres undefined) | – | – | > 5000 nM | 1300 nM | > 5000 nM
11 | CC(C)(C)[C@H](NC(=O)c1cc2cc(C(F)(F)P(=O)(O)O)ccc2s1)C(=O)N1CCC[C@H]1C(=O)N1CCOC(c2cccnc2)C1 (some centres undefined) | – | – | > 5000 nM | 310 nM | > 5000 nM
12 | CC(=O)N[C@H]1C[C@@H](C(=O)N2CCO[C@H](c3ccccc3)C2)N(C(=O)[C@@H](NC(=O)c2cc3cc(C(F)(F)P(=O)(O)O)ccc3s2)C(C)(C)C)C1 | – | – | – | – | 590 nM
13 | CC(C)(C)[C@H](NC(=O)c1cc2cc(C(F)(F)P(=O)(O)O)ccc2s1)C(=O)N1CCC[C@H]1C(=O)N1Cc2ccccc2C1 | – | – | – | – | > 5000 nM
14 | CC(C)(C)[C@H](NC(=O)c1cc2cc(C(F)(F)P(=O)(O)O)ccc2s1)C(=O)N1CCC[C@H]1C(=O)N1CCSC(c2ccccc2)C1 (some centres undefined) | – | – | 1400 nM | 80 nM | 1800 nM
15 | CC(C)(C)[C@H](NC(=O)c1cc2cc(C(F)(F)P(=O)(O)O)ccc2s1)C(=O)N1CCC[C@H]1C(=O)N1CCOC(c2ccccc2F)C1 (some centres undefined) | – | – | > 5000 nM | 110 nM | 2400 nM
16 | CC(C)(C)[C@H](NC(=O)c1cc2cc(C(F)(F)P(=O)(O)O)ccc2s1)C(=O)N1C[C@@H](NC(=O)CCCCCCC#Cc2cccc3c2CN(C2CCC(=O)NC2=O)C3=O)C[C@H]1C(=O)N1CCO[C@H](c2ccccc2)C1 (some centres undefined) | > 95% | 250 nM | – | – | –
17 | CC(C)(C)[C@H](NC(=O)c1cc2cc(C(F)(F)P(=O)(O)O)ccc2s1)C(=O)N1C[C@H](OCCCCCC#Cc2cccc3c2CN(C2CCC(=O)NC2=O)C3=O)C[C@H]1C(=O)N1CCO[C@H](c2ccccc2)C1 (some centres undefined) | > 95% | 130 nM | – | – | –
18 | CC(C)(C)[C@H](NC(=O)c1cc2cc(C(F)(F)P(=O)(O)O)ccc2s1)C(=O)N1C[C@@H](OCCCCCCCC#Cc2cccc3c2CN(C2CCC(=O)NC2=O)C3=O)C[C@H]1C(=O)N1CCO[C@H](c2ccccc2)C1 (some centres undefined) | > 95% | 60 nM | – | – | –
19 | CC(C)(C)[C@H](NC(=O)c1cc2cc(C(F)(F)P(=O)(O)O)ccc2s1)C(=O)N1CCC[C@H]1C(=O)N1CCOC(c2ccncc2)C1 (some centres undefined) | – | – | > 5000 nM | 1100 nM | > 5000 nM
20 | CC(C)(C)[C@H](NC(=O)c1cc2cc(C(F)(F)P(=O)(O)O)ccc2s1)C(=O)N1CCC[C@H]1C(=O)N1CCOC(c2ccc3ccccc3c2)C1 (some centres undefined) | – | – | 1400 nM | 83 nM | 800 nM
21 | CC(C)(C)[C@H](NC(=O)c1cc2cc(C(F)(F)P(=O)(O)O)ccc2s1)C(=O)N1C[C@@H](NC(=O)CCCCC#Cc2cccc3c2CN(C2CCC(=O)NC2=O)C3=O)C[C@H]1C(=O)N1CCO[C@H](c2ccccc2)C1 (some centres undefined) | > 95% | 120 nM | – | – | –
